Where a name gives a salt, the structure may show the parent alone.
Legend:
[1] = Physicochemical stability of Compound 1 Form A (equilibration, evaporation, anti-solvent, DSC heating-cooling cycle experiments); conditions: equilibration at 25° C. (18 solvent systems) and 50° C. (19), slow and fast evaporation
[2] = Feasibility of Formulation process (compression, dry grinding, granulation simulation); type: physicochemical; conditions: for tolerance to compression, dry grinding, granulation simulation: compression at 2, 5, 10 and 20 MPa, Form change and crystallinity
Protocol: Feasibility of Formulation process for Compound 1 mesylate Form C, phosphate Form A, maleate Form A, fumarate Form B hydrochloride Form C, and hydrochloride Form D were evaluated by compression (at 2 MPa, 5 MPa, 10 MPa, and 20 MPa), dry grinding, and granulation simulation experiments.

[3] = Solubility in aqueous pH buffers and bio-relevant solutions; type: physicochemical; conditions: for solubility: in some solvent systems (summary statement)
Protocol: Solubility of the Compound 1 mesylate Form C, phosphate Form A, maleate Form A, and fumarate Form B was measured in 6 aqueous pH buffers and bio-relevant solutions including pH 1.2 HCl solution (0.1 N), pH 4.5 acetate buffer (50 mM), water, pH 2.0 SGF, pH 6.5 FaSSIF-v1, and pH 5.0 FeSSIF-v1 at 37° C. for 1 h and 2 h. Residual solids after the solubility test were analyzed by XRPD.

PK exposure = type: in vivo; conditions: summary statement, method not given
Bulk stability = type: physicochemical; conditions: 1 week
Protocol: Bulk stability of Compound 1 mesylate Form C, phosphate Form A, maleate Form A, fumarate Form B was investigated under 25° C./60% RH in an open container and under 40° C./75% RH in an open container over 1 week. Bulk stability of Compound 1 hydrochloride Form C and Form D, were evaluated under 25° C./60% RH in an open container, under 40° C./75% RH in an open container, and at 60° C. in a tight container over 1 week.

[4] = Hygroscopicity by dynamic vapor sorption (DVS) test; type: physicochemical; conditions: for Form and crystallinity after the DVS test: after DVS at 25° C.; for hygroscopicity: DVS at 25° C.; for water absorbed: from 40% RH to 95% RH at 25° C.
Protocol: It absorbed about 1.1% water from 40% RH to 95% RH at 25° C. […] It absorbed about 2.3% water from 40% RH to 95% RH at 25° C. […] It absorbed about 0.4% water from 40% RH to 95% RH at 25° C. […] It absorbed about 0.29% water from 40% RH to 95% RH at 25° C. […] It absorbed about 0.14% water from 40% RH to 95% RH at 25° C. After the DVS test.

Row | SMILES | physicochemical stability (crystalline Form after the experiments) [1] | Form after dry grinding and compression ([2]; dry grinding and compression) | residual solids after the solubility test (XRPD) ([3]; SGF) | solubility [3] | PK exposure (PK exposure) | bulk stability (Bulk stability; 25° C./60% RH, open container) | bulk stability (Bulk stability; 40° C./75% RH, open container) | DVS behaviour of the potential hydrate ([4]; RH<70%, 25° C.) | Form and crystallinity after the DVS test [4] | DVS behaviour ([4]; from 0% RH to 40% RH, 25° C.) | DVS behaviour ([4]; relative humidity above 40%, 25° C.) | tolerance to compression ([2]; compression) | tolerance to compression, dry grinding, granulation simulation [2] | XRPD peaks after compression ([2]; compression at 5 MPa, 10 MPa, and 20 MPa) | bulk stability (Bulk stability; 60° C., tight container) | hygroscopicity [4] | water absorbed [4] | XRPD peaks after compression ([2]; compression under 5 MPa and 10 MPa) | solubility at 1 h ([3]; pH 2, simulated gastric fluid, thermodynamic from solid, SGF, 37° C., at 1 h) [µg/mL]
1 | CC(=O)Nc1cc(Nc2cc(C3CCOCC3)cc(S(C)(=O)=O)n2)c(-c2ccc3c(n2)OCC(C)(C)O3)cn1 [Compound 1 Form A, N-(5-(2,2-dimethyl-2,3-dihydro-[1,4]dioxino[2,3-b]pyridin-6-yl)-4-((6-(methylsulfonyl)-4-(tetrahydro-2H-pyran-4-yl)pyridin-2-yl)amino)pyridin-2-yl)acetamide] | still kept the same Form |  |  |  |  |  |  |  |  |  |  |  |  |  |  |  |  |  | 
2 | CC(=O)Nc1cc(Nc2cc(C3CCOCC3)cc(S(C)(=O)=O)n2)c(-c2ccc3c(n2)OCC(C)(C)O3)cn1 [Compound 1 fumarate Form B, N-(5-(2,2-dimethyl-2,3-dihydro-[1,4]dioxino[2,3-b]pyridin-6-yl)-4-((6-(methylsulfonyl)-4-(tetrahydro-2H-pyran-4-yl)pyridin-2-yl)amino)pyridin-2-yl)acetamide] |  | showed Form change | remained unchanged | relatively high solubility | good PK exposure | physically and chemically stable | physically and chemically stable | underwent dehydration when RH<70% and returns back to the anhydrate | still Compound 1 fumarate Form B | stable | started to absorb water when relative humidity was above 40% and converted to a potential hydrate |  |  |  |  |  |  |  | 
3 | CC(=O)Nc1cc(Nc2cc(C3CCOCC3)cc(S(C)(=O)=O)n2)c(-c2ccc3c(n2)OCC(C)(C)O3)cn1 [Compound 1 hydrochloride Form C, N-(5-(2,2-dimethyl-2,3-dihydro-[1,4]dioxino[2,3-b]pyridin-6-yl)-4-((6-(methylsulfonyl)-4-(tetrahydro-2H-pyran-4-yl)pyridin-2-yl)amino)pyridin-2-yl)acetamide] |  |  |  |  |  | physically and chemically stable | physically and chemically stable |  | No Form changed |  |  | good tolerance to compression with no Form change and no obvious crystallinity decrease | good tolerance | became slightly broad | physically and chemically stable | slightly hygroscopic | about 0.29% |  | 
4 | CC(=O)Nc1cc(Nc2cc(C3CCOCC3)cc(S(C)(=O)=O)n2)c(-c2ccc3c(n2)OCC(C)(C)O3)cn1 [Compound 1 hydrochloride Form D, N-(5-(2,2-dimethyl-2,3-dihydro-[1,4]dioxino[2,3-b]pyridin-6-yl)-4-((6-(methylsulfonyl)-4-(tetrahydro-2H-pyran-4-yl)pyridin-2-yl)amino)pyridin-2-yl)acetamide] |  |  |  |  |  | physically and chemically stable | physically and chemically stable |  | No Form changed |  |  |  | good tolerance |  | physically and chemically stable | non-hygroscopic | about 0.14% | became slightly broad | 
5 | CC(=O)Nc1cc(Nc2cc(C3CCOCC3)cc(S(C)(=O)=O)n2)c(-c2ccc3c(n2)OCC(C)(C)O3)cn1 [Compound 1 maleate Form A, N-(5-(2,2-dimethyl-2,3-dihydro-[1,4]dioxino[2,3-b]pyridin-6-yl)-4-((6-(methylsulfonyl)-4-(tetrahydro-2H-pyran-4-yl)pyridin-2-yl)amino)pyridin-2-yl)acetamide] |  |  |  | relatively high solubility | good PK exposure | physically and chemically stable | physically and chemically stable |  | No Form and crystallinity changed |  |  |  | good tolerance |  |  | slightly hygroscopic | about 0.4% |  | 
6 | CC(=O)Nc1cc(Nc2cc(C3CCOCC3)cc(S(C)(=O)=O)n2)c(-c2ccc3c(n2)OCC(C)(C)O3)cn1 [Compound 1 mesylate Form C, N-(5-(2,2-dimethyl-2,3-dihydro-[1,4]dioxino[2,3-b]pyridin-6-yl)-4-((6-(methylsulfonyl)-4-(tetrahydro-2H-pyran-4-yl)pyridin-2-yl)amino)pyridin-2-yl)acetamide] |  |  |  | relatively high solubility | good PK exposure | physically and chemically stable | physically and chemically stable |  | No Form and crystallinity changed |  |  |  | good tolerance |  |  | slightly hygroscopic | about 1.1% |  | 
7 | CC(=O)Nc1cc(Nc2cc(C3CCOCC3)cc(S(C)(=O)=O)n2)c(-c2ccc3c(n2)OCC(C)(C)O3)cn1 [Compound 1 phosphate Form A, N-(5-(2,2-dimethyl-2,3-dihydro-[1,4]dioxino[2,3-b]pyridin-6-yl)-4-((6-(methylsulfonyl)-4-(tetrahydro-2H-pyran-4-yl)pyridin-2-yl)amino)pyridin-2-yl)acetamide] |  |  |  | relatively high solubility | good PK exposure | physically and chemically stable | physically and chemically stable |  | No Form and crystallinity change |  |  |  | good tolerance |  |  | slightly hygroscopic | about 2.3% |  | ~740
